Data reported in PubChem BioAssay AID2060506 (Molecular Pharmacology Branch, DTP, NCI, 2025).

Tested on: 598228-144-R-J1-PDC complex spheroid viability
Experiment: Anticancer human tumor 598228-144-R-J1-PDC patient-derived serous endometrial adenocarcinoma cell line growth inhibition [GQUAD]
Conditions: for IC50: curve of first compound; for viability, T/C: stronger effect = lower value; active = viability on the fitted dose curve at most 10% of control; inactive = the rest
Method in brief: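 Multi-cell-type spheroids of tumor cells with HUVEC and mesenchymal stem cells, treated with drug combinations. Concentrations descend in half-log steps from near clinical Cmax, or from 10 microM where Cmax is unknown; viability read-out.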

[1] = second compound 0.0316 µM, first compound 0.0316 µM
[2] = second compound 0.0316 µM, first compound 0.1 µM
[3] = second compound 0.0316 µM, first compound 0.316 µM
[4] = second compound 0.0316 µM, first compound 1 µM
[5] = second compound 0.0316 µM, first compound 3.16 µM
[6] = second compound 0.0316 µM, first compound 10 µM
[7] = second compound 0.1 µM, first compound 0.0316 µM
[8] = second compound 0.1 µM, first compound 0.1 µM
[9] = second compound 0.1 µM, first compound 0.316 µM
[10] = second compound 0.1 µM, first compound 1 µM
[11] = second compound 0.1 µM, first compound 3.16 µM
[12] = second compound 0.1 µM, first compound 10 µM
[13] = second compound 0.316 µM, first compound 0.0316 µM
[14] = second compound 0.316 µM, first compound 0.1 µM
[15] = second compound 0.316 µM, first compound 0.316 µM
[16] = second compound 0.316 µM, first compound 1 µM
[17] = second compound 0.316 µM, first compound 3.16 µM
[18] = second compound 0.316 µM, first compound 10 µM
[19] = second compound 1 µM, first compound 0.0316 µM
[20] = second compound 1 µM, first compound 0.1 µM
[21] = second compound 1 µM, first compound 0.316 µM
[22] = second compound 1 µM, first compound 1 µM
[23] = second compound 1 µM, first compound 3.16 µM
[24] = second compound 1 µM, first compound 10 µM
[25] = second compound 3.16 µM, first compound 0.0316 µM
[26] = second compound 3.16 µM, first compound 0.1 µM
[27] = second compound 3.16 µM, first compound 0.316 µM
[28] = second compound 3.16 µM, first compound 1 µM
[29] = second compound 3.16 µM, first compound 3.16 µM
[30] = second compound 3.16 µM, first compound 10 µM
[31] = second compound 10 µM, first compound 0.0316 µM
[32] = second compound 10 µM, first compound 0.1 µM
[33] = second compound 10 µM, first compound 0.316 µM
[34] = second compound 10 µM, first compound 1 µM
[35] = second compound 10 µM, first compound 3.16 µM
[36] = second compound 10 µM, first compound 10 µM
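Also: spheroids exposed to the agents for one week before reading.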
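For viability, T/C in this document: percent of vehicle DMSO control viability so 100% = untreated growth.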

CC(=O)O[C@H]1C(=O)[C@@]2(C)[C@H]([C@H](OC(=O)c3ccccc3)[C@]3(O)C[C@H](OC(=O)[C@H](O)[C@@H](NC(=O)c4ccccc4)c4ccccc4)C(C)=C1C3(C)C)[C@]1(OC(C)=O)CO[C@@H]1C[C@@H]2O + Cc1cnc(CNC(=O)c2c(=O)c3ccc(N4CCCN(C)CC4)nc3n3c2sc2ccccc23)cn1
inactive: viability, T/C [1] 50.2% | viability, T/C [2] 37% | viability, T/C [3] 45.2% | viability, T/C [4] 41.3% | viability, T/C [5] 43.7% | viability, T/C [6] 43.2% | viability, T/C [7] 48.4% | viability, T/C [8] 54.9% | viability, T/C [9] 44.5% | viability, T/C [10] 49.9% | viability, T/C [11] 53.2% | viability, T/C [12] 51.7% | viability, T/C [13] 49% | viability, T/C [14] 67.9% | viability, T/C [15] 45.9% | viability, T/C [16] 39.1% | viability, T/C [17] 51.2% | viability, T/C [18] 49.6% | viability, T/C [19] 52.1% | viability, T/C [20] 59.9% | viability, T/C [21] 53.2% | viability, T/C [22] 50% | viability, T/C [23] 50% | viability, T/C [24] 50.9% | viability, T/C [25] 46.9% | viability, T/C [26] 38.8% | viability, T/C [27] 43.2% | viability, T/C [28] 34.5% | viability, T/C [29] 40.4% | viability, T/C [30] 44.5%
533 nM: IC50 (second compound 0.316 µM)
7490 nM: IC50 (second compound 1 µM)
active: viability, T/C [31] 0.38% | viability, T/C [32] 19.7% | viability, T/C [33] 0.53% | viability, T/C [34] 0.57% | viability, T/C [35] 10.9% | viability, T/C [36] 12.1%
< 31.6 nM: IC50 (second compound 0.0316 µM) | IC50 (second compound 0.1 µM) | IC50 (second compound 3.16 µM) | IC50 (second compound 10 µM)

C=CCn1c(=O)c2cnc(Nc3ccc(N4CCN(C)CC4)cc3)nc2n1-c1cccc(C(C)(C)O)n1 + Cc1cnc(CNC(=O)c2c(=O)c3ccc(N4CCCN(C)CC4)nc3n3c2sc2ccccc23)cn1
active: viability, T/C [35] 0.58% | viability, T/C [36] 21.5%
< 31.6 nM: IC50 (second compound 3.16 µM) | IC50 (second compound 10 µM)
445 nM: IC50 (second compound 0.1 µM)
inactive: viability, T/C [1] 76% | viability, T/C [2] 95% | viability, T/C [3] 61.1% | viability, T/C [4] 44.1% | viability, T/C [5] 45.2% | viability, T/C [6] 61.6% | viability, T/C [7] 82.7% | viability, T/C [8] 74.3% | viability, T/C [9] 51.7% | viability, T/C [10] 45.5% | viability, T/C [11] 43.7% | viability, T/C [12] 38% | viability, T/C [13] 71.4% | viability, T/C [14] 74.5% | viability, T/C [15] 65.9% | viability, T/C [16] 52.5% | viability, T/C [17] 40.6% | viability, T/C [18] 42.6% | viability, T/C [19] 86.5% | viability, T/C [20] 55.4% | viability, T/C [21] 55.3% | viability, T/C [22] 60.3% | viability, T/C [23] 41.6% | viability, T/C [24] 39.8% | viability, T/C [25] 50.8% | viability, T/C [26] 47.6% | viability, T/C [27] 42.3% | viability, T/C [28] 41% | viability, T/C [29] 52.5% | viability, T/C [30] 41.1% | viability, T/C [31] 24.5% | viability, T/C [32] 42.1% | viability, T/C [33] 19.2% | viability, T/C [34] 0.53%
1220 nM: IC50 (second compound 0.316 µM)
655 nM: IC50 (second compound 1 µM)
10000 nM: IC50 (second compound 0.0316 µM)

Nc1ccn(C2OC(CO)C(O)C2(F)F)c(=O)n1 (stereo unspecified) + Cc1[nH]c2ccc(F)cc2c1-c1nc2c3cccnc3c3ncccc3c2[nH]1
135 nM: IC50 (second compound 0.316 µM)
inactive: viability, T/C [1] 64.6% | viability, T/C [2] 54.6% | viability, T/C [3] 52.1% | viability, T/C [4] 47.9% | viability, T/C [5] 43.9% | viability, T/C [6] 41% | viability, T/C [7] 54.8% | viability, T/C [8] 57.5% | viability, T/C [9] 45.3% | viability, T/C [10] 40% | viability, T/C [11] 39.9% | viability, T/C [12] 44.9% | viability, T/C [13] 60.7% | viability, T/C [14] 52.3% | viability, T/C [15] 48.3% | viability, T/C [16] 39.9% | viability, T/C [17] 43.6% | viability, T/C [18] 49.7% | viability, T/C [19] 53.2% | viability, T/C [20] 49.1% | viability, T/C [21] 46.2% | viability, T/C [22] 36.3% | viability, T/C [23] 50.4% | viability, T/C [24] 41.9% | viability, T/C [25] 36.3% | viability, T/C [26] 36.7% | viability, T/C [27] 38.5% | viability, T/C [28] 37.9% | viability, T/C [29] 32.4% | viability, T/C [30] 44.5% | viability, T/C [31] 51.6% | viability, T/C [32] 37.6% | viability, T/C [33] 37.8% | viability, T/C [34] 47.5% | viability, T/C [35] 35.7% | viability, T/C [36] 32%
< 31.6 nM: IC50 (second compound 3.16 µM) | IC50 (second compound 10 µM)
44.8 nM: IC50 (second compound 1 µM)
136 nM: IC50 (second compound 0.1 µM)
439 nM: IC50 (second compound 0.0316 µM)
